Measured values reported in PubChem BioAssay AID330 (DTP/NCI, 2004).
Several values for one entry are separate records, joined by “and”; a condition that tells them apart may be missing. Equal values may be shown once. Inconclusive results and toxic doses are left out. How the source made its calls: active means survival T/C of 150% or more; inactive means T/C below 125% in these data.

Tested on: P388 leukemia ip, CD2F1 mice, survival T/C
Experiment: NCI In Vivo Anticancer Drug Screen. Data for tumor model P388 Leukemia (intraperitoneal) in CD2F1 (CDF1) mice
Settings: endpoint: median survival time, higher = longer survival
Procedure, shortened: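 Mice carrying the transplanted tumor received test compound or vehicle. Survival was recorded in each group, and the value is the treated-group measurement divided by that of the vehicle-treated control group.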

[1] = dose: 50.0 mg/kg/injection, schedule: Q01DX005 (ip), vehicle: saline
[2] = dose: 100.0 mg/kg/injection, schedule: Q01DX005 (ip), vehicle: saline
[3] = dose: 100.0 mg/kg/injection, schedule: Q04DX003 (ip), vehicle: saline with Tween-80
[4] = dose: 200.0 mg/kg/injection, schedule: Q04DX003 (ip), vehicle: saline with Tween-80
[5] = dose: 400.0 mg/kg/injection, schedule: Q04DX003 (ip), vehicle: saline with Tween-80
[6] = dose: 50.0 mg/kg/injection, schedule: Q01DX005 (ip), vehicle: Klucel (hydroxypropylcellulose) (HPC)
[7] = dose: 100.0 mg/kg/injection, schedule: Q01DX005 (ip), vehicle: Klucel (hydroxypropylcellulose) (HPC)
[8] = dose: 200.0 mg/kg/injection, schedule: Q01DX005 (ip), vehicle: Klucel (hydroxypropylcellulose) (HPC)
[9] = dose: 50.0 mg/kg/injection, schedule: Q04DX002 (ip), vehicle: saline with Tween-80
[10] = dose: 100.0 mg/kg/injection, schedule: Q04DX002 (ip), vehicle: saline with Tween-80
[11] = dose: 50.0 mg/kg/injection, schedule: Q01DX005 (ip), vehicle: saline with Tween-80
[12] = dose: 100.0 mg/kg/injection, schedule: Q01DX005 (ip), vehicle: saline with Tween-80
[13] = dose: 200.0 mg/kg/injection, schedule: Q01DX005 (ip), vehicle: saline with Tween-80
[14] = dose: 6.25 mg/kg/injection, schedule: Q01DX009 (ip), vehicle: saline
[15] = dose: 12.5 mg/kg/injection, schedule: Q01DX009 (ip), vehicle: saline
[16] = dose: 50.0 mg/kg/injection, schedule: Q01DX009 (ip), vehicle: saline with Tween-80
[17] = dose: 100.0 mg/kg/injection, schedule: Q01DX009 (ip), vehicle: saline with Tween-80
[18] = dose: 60.0 mg/kg/injection, schedule: Q01DX005 (ip), vehicle: saline with Tween-80
[19] = dose: 120.0 mg/kg/injection, schedule: Q01DX005 (ip), vehicle: saline with Tween-80
[20] = dose: 240.0 mg/kg/injection, schedule: Q01DX005 (ip), vehicle: saline with Tween-80
[21] = dose: 200.0 mg/kg/injection, schedule: Q01DX009 (ip), vehicle: saline with Tween-80

Measured: T/C

CN1C2C=CC1c1c(C3=NC(C)(C)CO3)cccc12 (configuration not stated)
inactive: [1] 98 % of control | [2] 103 % of control

COc1ccc(CC2C(=O)OC(=O)C2Cc2ccc(OC)c(OC)c2)cc1OC (configuration not stated)
inactive: [3] 100 % of control | [4] 90 % of control | [5] 100 % of control

O=C(O)[C@@H]1CCC(c2ccccc2)=N1
inactive: dose: 50.0 mg/kg/injection, schedule: Q01DX005 (ip), vehicle: distilled water + alcohol 98 % of control | dose: 100.0 mg/kg/injection, schedule: Q01DX005 (ip), vehicle: distilled water + alcohol 98 % of control | dose: 200.0 mg/kg/injection, schedule: Q01DX005 (ip), vehicle: distilled water + alcohol 98 % of control

CC(CC(C)C)=NC(C)CC(C)C (configuration not stated)
inactive: [1] 97 % of control | [2] 95 % of control

Cc1ccc(S(=O)(=O)OC2=C3OC(=O)C4(C3C=CC=C2)C2C=CC=CC24)cc1 (configuration not stated)
inactive: dose: 100.0 mg/kg/injection, schedule: Q01DX001 (ip), vehicle: saline with Tween-80 96 % of control | dose: 200.0 mg/kg/injection, schedule: Q01DX001 (ip), vehicle: saline with Tween-80 93 % of control | dose: 400.0 mg/kg/injection, schedule: Q01DX001 (ip), vehicle: saline with Tween-80 90 % of control

COc1cc2c(cc1OC)[C@@]1(C[C@H]1CO)OCC2
inactive: dose: 100.0 mg/kg/injection, schedule: Q04DX002 (ip), vehicle: Klucel (hydroxypropylcellulose) (HPC) 100 % of control | dose: 200.0 mg/kg/injection, schedule: Q04DX002 (ip), vehicle: Klucel (hydroxypropylcellulose) (HPC) 98 % of control | dose: 400.0 mg/kg/injection, schedule: Q04DX002 (ip), vehicle: Klucel (hydroxypropylcellulose) (HPC) 95 % of control

CC(C)C1CCC2(C)C(CCC3C4(C)CCCC32OC4=O)C1 (configuration not stated)
inactive: [6] 104 % of control | [7] 99 % of control | [8] 101 % of control

CCN1c2ccccc2CC(CCN(C(C)C)C(C)C)(C(N)=O)c2ccccc21 (configuration not stated)
inactive: dose: 25.0 mg/kg/injection, schedule: Q04DX002 (ip), vehicle: saline with Tween-80 95 % of control | [9] 95 % of control | [10] 95 % of control

COc1cc(N)c2c(c1N)C(=O)c1ccccc1C2=O
inactive: [6] 98 % of control | [7] 101 % of control | [8] 97 % of control

CCOC(=O)CN(CC(=O)OCC)c1ccccc1OCCOc1ccccc1N(CC(=O)OCC)CC(=O)OCC
inactive: dose: 60.0 mg/kg/injection, schedule: Q01DX005 (ip), vehicle: Klucel (hydroxypropylcellulose) (HPC) 95 % of control | dose: 120.0 mg/kg/injection, schedule: Q01DX005 (ip), vehicle: Klucel (hydroxypropylcellulose) (HPC) 96 % of control | dose: 240.0 mg/kg/injection, schedule: Q01DX005 (ip), vehicle: Klucel (hydroxypropylcellulose) (HPC) 93 % of control

O=C1Nc2ccc(Cl)cc2C(c2ccccc2Cl)=NC1O (configuration not stated)
inactive: dose: 100.0 mg/kg/injection, schedule: Q01DX009 (ip), vehicle: Klucel (hydroxypropylcellulose) (HPC) 102 % of control | dose: 200.0 mg/kg/injection, schedule: Q01DX009 (ip), vehicle: Klucel (hydroxypropylcellulose) (HPC) 96 % of control

C=C(C)CNC(=O)C(C)O (configuration not stated)
inactive: [11] 97 % of control | [12] 93 % of control | [13] 99 % of control

CCCCCCCC[N+](C)(C)CC#CC[N+](C)(C)CCCCCCCC
inactive: dose: 6.25 mg/kg/injection, schedule: Q04DX003 (ip), vehicle: saline 96 % of control | dose: 12.5 mg/kg/injection, schedule: Q04DX003 (ip), vehicle: saline 103 % of control

Nc1nnnn1-n1cccc1
inactive: [11] 103 % of control | [12] 103 % of control | [13] 103 % of control

Nc1cccc2c1C(=O)c1ccc(Cl)cc1C2=O
inactive: [6] 99 % of control | [7] 94 % of control | [8] 99 % of control

[O-]/[N+](=C\c1ccccc1)c1ccccc1
inactive: [3] 104 % of control | [4] 99 % of control

CN(C)CCNC1=C(Cl)C(=O)c2ccccc2C1=O
inactive: dose: 3.13 mg/kg/injection, schedule: Q01DX009 (ip), vehicle: saline 95 % of control | [14] 94 % of control | [15] 97 % of control

Cc1ccc(C)c2c1C(O)(C#Cc1ccccc1)c1ccccc1C2(O)C#Cc1ccccc1 (configuration not stated)
inactive: [16] 86 % of control | [17] 86 % of control

Cc1ccc(S(=O)(=O)OC2CN(S(=O)(=O)c3ccc(C)cc3)C2)cc1
inactive: [6] 100 % of control | [7] 91 % of control | [8] 90 % of control

COc1ccc(/C=N\N=C(/[O-])c2ccc(Cl)cc2)cc1.COc1ccc(/C=N\N=C(/[O-])c2ccc(Cl)cc2)cc1.[Mn+2].[OH3+].[OH3+]
inactive: [9] 102 % of control | [10] 102 % of control | dose: 200.0 mg/kg/injection, schedule: Q04DX002 (ip), vehicle: saline with Tween-80 104 % of control

COC(=O)C1CCCN1C(=O)c1ccccc1 (configuration not stated)
inactive: [11] 114 % of control | [12] 93 % of control | [13] 100 % of control

Nc1ncc2c(n1)CSCC2=O
inactive: [18] 98 % of control | [19] 100 % of control | [20] 90 % of control

COc1cc(/C=N/NC(=O)COc2ccccc2)ccc1O
inactive: [18] 100 % of control | [19] 103 % of control | [20] 98 % of control

CCCCNC(=O)OCC1=C(COC(=O)NCCCC)C2OC1C(C(=O)OC)=C2C(=O)OC
inactive: dose: 3.13 mg/kg/injection, schedule: Q01DX009 (ip), vehicle: distilled water + Tween-80 109 % of control | dose: 6.25 mg/kg/injection, schedule: Q01DX009 (ip), vehicle: distilled water + Tween-80 101 % of control and 108 % of control and 113 % of control | dose: 50.0 mg/kg/injection, schedule: Q01DX009 (ip), vehicle: distilled water + Tween-80 104 % of control and 108 % of control | dose: 100.0 mg/kg/injection, schedule: Q01DX009 (ip), vehicle: distilled water + Tween-80 95 % of control

COC(=O)C(CO)Nc1ccccc1 (configuration not stated)
inactive: [18] 103 % of control | [19] 99 % of control | [20] 96 % of control

O=C1OC2CC13Cc1ccccc1C3(C(=O)O)CC2I (configuration not stated)
inactive: [18] 104 % of control | [19] 106 % of control | [20] 100 % of control

Oc1ccc2ccccc2c1C(c1ccc(Cl)cc1)c1c(O)ccc2ccccc12
inactive: [11] 100 % of control | [12] 101 % of control | [13] 107 % of control

Cc1cc[n+](Cc2cc3ccccc3nc2Cl)cc1C
inactive: dose: 3.75 mg/kg/injection, schedule: Q01DX005 (ip), vehicle: saline 110 % of control | dose: 7.5 mg/kg/injection, schedule: Q01DX005 (ip), vehicle: saline 93 % of control | dose: 15.0 mg/kg/injection, schedule: Q01DX005 (ip), vehicle: saline 104 % of control | dose: 30.0 mg/kg/injection, schedule: Q01DX005 (ip), vehicle: saline 107 % of control

Cc1ccc2c(c1)=N/C(=N/c1[nH]c(O)c3ccccc13)N=2
inactive: [16] 100 % of control and 96 % of control | [17] 99 % of control

Clc1ncnc2c1ncn2C1CCCCO1 (configuration not stated)
inactive: dose: 50.0 mg/kg/injection, schedule: Q04DX003 (ip), vehicle: saline with Tween-80 104 % of control | dose: 100.0 mg/kg/injection, schedule: Q01DX009 (ip), vehicle: other 95 % of control | [3] 100 % of control | dose: 200.0 mg/kg/injection, schedule: Q01DX009 (ip), vehicle: other 95 % of control | [4] 100 % of control | [5] 100 % of control

O=C(Nc1ccccc1)Oc1ccc(/C=N/S(=O)(=O)c2cccc([N+](=O)[O-])c2)cc1
inactive: [16] 96 % of control | [17] 98 % of control | [21] 118 % of control

CC(=O)N1C=CN(C(C)=O)C1c1c[nH]c2ccccc12
inactive: [6] 98 % of control | [7] 104 % of control | [8] 99 % of control

OCC[N-]CC[N-]CCO.[Cl][Co][Cl]
inactive: [14] 103 % of control | [15] 120 % of control | dose: 25.0 mg/kg/injection, schedule: Q01DX009 (ip), vehicle: saline 120 % of control | dose: 50.0 mg/kg/injection, schedule: Q01DX009 (ip), vehicle: saline 122 % of control | dose: 100.0 mg/kg/injection, schedule: Q01DX009 (ip), vehicle: saline 92 % of control

COC1/C=C/OC2(C)Oc3c(C)c(O)c4c(O)c(c(/C=N/N5C(C)CN(Cc6ccccc6O)CC5C)c(O)c4c3C2=O)NC(=O)/C(C)=C\C=C\C(C)C(O)C(C)C(O)C(C)C(OC(C)=O)C1C (configuration not stated)
inactive: [16] 92 % of control | [17] 96 % of control | [21] 91 % of control
